Experimental data from patent publication US9159937B2, “Heteroleptic light-emitting complexes” (SOLVAY SA, priority 2011, dated 2015).
Read-outs that look alike come from different tables or passages of the source.

Tests used:
[1] = Solubility evaluation in toluene; format: physicochemical
Description: Solubility evaluation were performed at 25° C. using toluene as solvent.

[2] = Glass transition temperature by DSC; format: physicochemical
Description: The glass transition temperatures Tg were measured using a TA instruments 2920 DSC equipment and data evaluation were done with the TA Instruments Universal Analysis 2000 software.

[Ir+3].[c-]1ccccc1-c1ccc2ccccc2n1.[c-]1ccccc1-c1ccc2ccccc2n1.[c-]1ccccc1-c1ccc2ccccc2n1 [[Ir(2-PhQ)3], reference compound]
Toluene solubility S at 25° C. [1]: S < 0.02 wt % | Toluene solubility S at 25° C. ([1]; listed as Ir(2-PhQ)3): < 0.02 wt %

[Ir(2-PhQ)2(DMC2)]
Toluene solubility S at 25° C. [1]: S > 0.25 wt %

[Ir(n-hexPhQ)3] [reference compound]
Tg [2]: 54 °C
